This passage reports IC50, Emax and Activity results from ChEMBL document CHEMBL4813912, “Progress in the Development of Small Molecular Inhibitors of Focal Adhesion Kinase (FAK)” (J Med Chem, 2020).

For one assay, the system named is RD. As to the kind of experiment: Cytotoxicity against human RD cells incubated for 96 hrs by DIMSCAN method. Type of assay: functional, cell-based.
Assay [1] deals with T1, Focal adhesion kinase 1 (Homo sapiens, UniProt Q05397). The assay is described as follows: Inhibition of FAK in human U87MG cells assessed as reduction in phosphorylation at Y397 residue incubated for 30 mins by Western blot analysis. For orientation: A western blot detects proteins with antibodies after separation by electrophoresis.
Assay [2] concerns the target T1, Focal adhesion kinase 1. The assay is described as follows: Inhibition of FAK in human A549 cells assessed as reduction in phosphorylation at Y397 residue incubated for 30 mins by Western blot analysis.
The target in assay [3] is T1, Focal adhesion kinase 1. The assay is described as follows: Inhibition of FAK in human OVCAR8 cells assessed as reduction in phosphorylation at Y397 residue incubated for 30 mins by Western blot analysis.
The target of assay [4] is von Hippel-Lindau disease tumor suppressor/Focal adhesion kinase 1 (Homo sapiens) (UniProt Q05397+P40337). As to the kind of experiment: Induction of VHL-mediated FAK degradation in human PC3 cells at 10 to 10000 nM incubated for 24 hrs by Western blot analysis relative to control. Type of assay: cell-based. As to conditions: PC-3, dose 10-10000 nM.
Assay [5] deals with Protein-tyrosine kinase 2-beta (Homo sapiens, UniProt Q14289). As to the kind of experiment: Inhibition of pyk2 (unknown origin).
In a further assay the test system is OVCAR-3. The assay is described as follows: Cytotoxicity against human OVCAR-3 cells in presence of metformin and carboplatin relative to control. Type of assay: functional.
In assay [6] the target is T1, Focal adhesion kinase 1.
Description: Inhibition of FAK (unknown origin) (410 to 689 residues) assessed as reduction in poly(Glu-Tyr) phosphorylation using poly (Glu,Tyr) as substrate by ELISA-based assay
In a further assay the test system is BT-474. As to the kind of experiment: Antiproliferative activity against human BT-474 cells incubated for 72 hrs by MTT assay. It counts as functional, cell-based. The conditions noted are these: BT-474, 72 h. A general note: Tetrazolium dyes change colour on reduction, which living cells bring about.
In another assay the test system is MDA-MB-231. As to the kind of experiment: Antiproliferative activity against human MDA-MB-231 cells incubated for 72 hrs by MTT assay. Type of assay: functional, cell-based. The conditions noted are these: MDA-MB-231, 72 h.
Another assay has as its system T47D. The assay is described as follows: Antiproliferative activity against human T-47D cells incubated for 72 hrs by MTT assay. Type of assay: functional, cell-based.
For another assay, the system named is MCF7. As to the kind of experiment: Antiproliferative activity against human MCF7 cells incubated for 72 hrs by MTT assay. The conditions noted are these: MCF7, 72 h. Type of assay: functional, cell-based.

T1 sequence (Q05397 whole entry): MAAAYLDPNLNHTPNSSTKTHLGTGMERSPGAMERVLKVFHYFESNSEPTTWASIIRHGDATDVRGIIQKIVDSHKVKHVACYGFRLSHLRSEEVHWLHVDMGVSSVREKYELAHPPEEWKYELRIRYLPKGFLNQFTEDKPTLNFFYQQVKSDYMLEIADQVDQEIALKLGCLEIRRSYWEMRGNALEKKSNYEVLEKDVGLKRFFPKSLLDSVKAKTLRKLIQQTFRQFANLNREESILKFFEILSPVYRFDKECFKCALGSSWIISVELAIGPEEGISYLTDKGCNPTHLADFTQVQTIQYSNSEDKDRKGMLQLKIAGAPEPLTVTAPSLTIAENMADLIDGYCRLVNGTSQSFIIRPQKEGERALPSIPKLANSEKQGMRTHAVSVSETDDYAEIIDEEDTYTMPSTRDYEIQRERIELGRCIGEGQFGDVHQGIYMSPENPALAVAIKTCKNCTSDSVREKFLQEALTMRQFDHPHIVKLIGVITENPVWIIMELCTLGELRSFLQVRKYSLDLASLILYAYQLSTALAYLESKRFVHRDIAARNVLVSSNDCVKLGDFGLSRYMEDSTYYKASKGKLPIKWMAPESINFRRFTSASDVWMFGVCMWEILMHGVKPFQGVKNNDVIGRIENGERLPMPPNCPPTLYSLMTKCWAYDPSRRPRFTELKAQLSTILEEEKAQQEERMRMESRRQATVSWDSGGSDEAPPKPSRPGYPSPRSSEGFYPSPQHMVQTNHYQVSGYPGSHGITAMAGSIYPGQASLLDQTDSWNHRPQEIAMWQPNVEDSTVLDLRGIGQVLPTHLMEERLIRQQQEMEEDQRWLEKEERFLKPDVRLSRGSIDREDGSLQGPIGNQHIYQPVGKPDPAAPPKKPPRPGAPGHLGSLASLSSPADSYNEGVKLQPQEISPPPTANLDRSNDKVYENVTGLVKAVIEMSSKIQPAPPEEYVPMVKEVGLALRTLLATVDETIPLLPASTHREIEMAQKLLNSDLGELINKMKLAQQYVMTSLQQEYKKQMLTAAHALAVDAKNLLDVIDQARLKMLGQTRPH
Chain of von Hippel-Lindau disease tumor suppressor/Focal adhesion kinase 1 (Homo sapiens) (P40337 whole entry partner): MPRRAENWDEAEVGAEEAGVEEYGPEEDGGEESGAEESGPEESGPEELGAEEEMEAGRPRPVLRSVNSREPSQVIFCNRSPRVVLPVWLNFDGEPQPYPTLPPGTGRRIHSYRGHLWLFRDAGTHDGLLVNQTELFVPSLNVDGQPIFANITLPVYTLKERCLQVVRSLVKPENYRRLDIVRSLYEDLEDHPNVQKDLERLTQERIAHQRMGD
Chain of von Hippel-Lindau disease tumor suppressor/Focal adhesion kinase 1 (Homo sapiens) (Q05397 2-1052 limits assumed): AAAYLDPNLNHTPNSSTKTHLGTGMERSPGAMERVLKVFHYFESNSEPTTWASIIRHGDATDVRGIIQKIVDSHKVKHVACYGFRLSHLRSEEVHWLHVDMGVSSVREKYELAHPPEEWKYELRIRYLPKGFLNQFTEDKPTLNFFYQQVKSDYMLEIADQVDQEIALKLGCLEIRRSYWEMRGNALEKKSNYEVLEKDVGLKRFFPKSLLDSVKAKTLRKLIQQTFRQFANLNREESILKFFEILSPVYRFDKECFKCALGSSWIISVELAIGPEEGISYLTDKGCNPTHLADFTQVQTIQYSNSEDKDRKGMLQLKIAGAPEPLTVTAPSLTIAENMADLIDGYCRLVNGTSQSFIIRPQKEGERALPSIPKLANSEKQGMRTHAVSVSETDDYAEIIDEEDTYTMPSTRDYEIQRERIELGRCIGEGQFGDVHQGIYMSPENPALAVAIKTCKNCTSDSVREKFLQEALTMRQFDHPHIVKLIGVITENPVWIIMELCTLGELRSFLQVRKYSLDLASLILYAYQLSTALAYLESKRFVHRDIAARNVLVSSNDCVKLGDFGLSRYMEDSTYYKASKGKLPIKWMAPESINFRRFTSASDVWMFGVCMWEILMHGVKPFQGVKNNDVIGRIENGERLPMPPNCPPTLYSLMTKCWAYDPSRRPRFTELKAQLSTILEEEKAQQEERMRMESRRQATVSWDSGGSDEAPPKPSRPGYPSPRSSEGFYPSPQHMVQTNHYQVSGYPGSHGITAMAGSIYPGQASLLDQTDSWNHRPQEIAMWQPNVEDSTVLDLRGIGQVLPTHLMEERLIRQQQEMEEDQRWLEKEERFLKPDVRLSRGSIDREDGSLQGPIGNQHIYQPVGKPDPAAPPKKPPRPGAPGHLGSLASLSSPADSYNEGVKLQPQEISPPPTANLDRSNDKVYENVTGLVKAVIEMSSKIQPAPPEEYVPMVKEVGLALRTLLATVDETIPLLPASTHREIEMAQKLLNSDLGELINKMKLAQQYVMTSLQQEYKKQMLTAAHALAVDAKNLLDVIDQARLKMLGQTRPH
Chain of Protein-tyrosine kinase 2-beta (Q14289 whole entry): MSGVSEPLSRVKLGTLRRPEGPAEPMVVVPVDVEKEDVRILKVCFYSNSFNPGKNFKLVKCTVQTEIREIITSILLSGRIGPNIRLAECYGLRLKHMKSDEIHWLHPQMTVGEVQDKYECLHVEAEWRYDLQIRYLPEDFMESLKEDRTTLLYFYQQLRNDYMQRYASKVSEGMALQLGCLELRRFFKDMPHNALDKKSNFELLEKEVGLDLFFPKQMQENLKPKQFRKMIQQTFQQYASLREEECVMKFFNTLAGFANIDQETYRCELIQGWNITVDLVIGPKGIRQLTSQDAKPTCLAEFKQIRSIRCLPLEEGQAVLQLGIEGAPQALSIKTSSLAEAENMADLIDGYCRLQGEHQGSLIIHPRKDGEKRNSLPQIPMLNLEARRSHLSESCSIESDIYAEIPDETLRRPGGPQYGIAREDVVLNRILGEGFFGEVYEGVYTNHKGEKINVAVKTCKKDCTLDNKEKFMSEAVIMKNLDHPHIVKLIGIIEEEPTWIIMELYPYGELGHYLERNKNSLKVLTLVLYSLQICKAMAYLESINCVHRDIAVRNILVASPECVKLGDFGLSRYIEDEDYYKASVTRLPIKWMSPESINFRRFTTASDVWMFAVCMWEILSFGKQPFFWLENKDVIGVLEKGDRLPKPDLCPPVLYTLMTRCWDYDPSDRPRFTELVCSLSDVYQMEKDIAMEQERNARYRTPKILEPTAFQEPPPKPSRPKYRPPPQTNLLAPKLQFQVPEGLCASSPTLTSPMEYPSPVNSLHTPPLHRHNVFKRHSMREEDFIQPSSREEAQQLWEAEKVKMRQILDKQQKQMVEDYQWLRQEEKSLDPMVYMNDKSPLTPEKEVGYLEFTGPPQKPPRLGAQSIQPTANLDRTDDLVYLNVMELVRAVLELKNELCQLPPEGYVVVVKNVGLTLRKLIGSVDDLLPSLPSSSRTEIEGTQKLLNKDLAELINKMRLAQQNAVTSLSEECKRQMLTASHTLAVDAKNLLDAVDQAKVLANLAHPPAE

Regarding `CNC(=O)c1ccccc1Nc1cc(Nc2ccc(N3CCOCC3)cc2OC)ncc1C(F)(F)F` [VS-4718], the IC50 – broadly, the point on the concentration scale where inhibition reaches its midpoint – in the assay with RD stood at 1.22 µM.

As for `CONC(=O)c1ccccc1Nc1cc(Nc2cc(C)nn2C(C)C)ncc1Cl` [GSK-2256098], the values for the concentration for half-maximal inhibition (IC50) on Focal adhesion kinase 1 [1], on Focal adhesion kinase 1 [2] and at Focal adhesion kinase 1 [3] were 0.0085 µM, 0.012 µM and 0.015 µM, respectively.

Regarding `Cc1ncsc1-c1ccc(CNC(=O)[C@@H]2C[C@@H](O)CN2C(=O)[C@@H](NC(=O)CCOCCOc2ccc(Nc3ncc(C(F)(F)F)c(NCc4cccc(N(C)S(C)(=O)=O)c4)n3)cc2)C(C)(C)C)cc1`, the Emax (in general, the greatest response seen or fitted, relative to the assay's reference) in [4] stood at 99%.

On to `CS(=O)(=O)c1cccc(CNc2nc(Nc3ccc4c(c3)CC(=O)N4)ncc2C(F)(F)F)c1`, for which the IC50 was determined as 1 µM in assay [5] and 0.004 µM against Focal adhesion kinase 1 [6]. Also, the Activity in the assay with OVCAR-3 is listed as 94%.

Regarding `CC1=CC[C@@]2(O)[C@H](CC[C@]2(C)O)C(C)(C)[C@@H]1CC[C@H]1[C@]2(C)CC[C@H](OC(=O)c3ccc(Cl)c(Cl)c3)C(C)(C)O[C@H]2CC[C@@]1(C)O`, the IC50 in the assay on BT-474 worked out at 20.1 µM; in the assay with MDA-MB-231, 7.5 µM; with T47D, 25.1 µM; in the assay with MCF7, 15.2 µM.
